From publication PMC6440977, “Nucleoside analogue activators of cyclic AMP-independent protein kinase A of Trypanosoma” (Nature Communications, 2019)
Where “and” joins values, the source holds several entries; their conditions need not be identical. Equal entries are not always repeated. Where two headings read alike, the source gives them in different places.

Experiments:
T. brucei PKA = T. brucei PKA (Trypanosoma brucei brucei, UniProt Q9GU80); test: In vivo PKA reporter assay (VASP Ser-157 phosphorylation, western blot); type: cell-based; settings: for % VASP phosphorylation: independent replicates; for effect on in vivo PKA activity (VASP phosphorylation), in words: wild type background;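 for % VASP phosphorylation: Phosphorylated VASP as percent of total VASP band signal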;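 for all read-outs here: T. brucei cells expressing human VASP as heterologous PKA substrate, compound exposure at 37 °C, western blot of phospho (50 kDa) versus unphosphorylated (46 kDa) VASP band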
[1] = system: T. brucei ∆pkar/∆pkar (pkar KO) cells; test: microbe, parasite or virus in culture; type: cell-based, Trypanosoma brucei
T. brucei BSF cells (WT) = test: Alamar blue cell viability assay, wild type; settings: read-out: EC50, Alamar blue cell viability assay, WT; individual replicate results; wild type cells;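 note: trypanosomes seeded at 5×10^3 per ml and grown 72 h with compound, then resazurin 0.5 mM added for 4 h as the viability read-out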
[2] = system: T. brucei PKA holoenzyme (Ty1-PKAC1); type: biochemical, Trypanosoma brucei

T. brucei PKA, sequence (Q38DS1 entry or part of it): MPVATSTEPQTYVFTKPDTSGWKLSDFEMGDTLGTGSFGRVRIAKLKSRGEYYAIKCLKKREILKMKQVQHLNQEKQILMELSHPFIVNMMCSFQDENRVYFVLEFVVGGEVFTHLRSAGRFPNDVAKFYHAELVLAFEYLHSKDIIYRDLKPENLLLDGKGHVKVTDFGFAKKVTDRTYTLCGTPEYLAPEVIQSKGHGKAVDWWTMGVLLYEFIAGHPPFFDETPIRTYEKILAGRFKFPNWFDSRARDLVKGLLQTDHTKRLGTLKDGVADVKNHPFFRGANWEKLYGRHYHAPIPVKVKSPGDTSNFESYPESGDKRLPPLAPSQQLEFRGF
T. brucei PKA, sequence (Q38DR5 entry or part of it, further chain): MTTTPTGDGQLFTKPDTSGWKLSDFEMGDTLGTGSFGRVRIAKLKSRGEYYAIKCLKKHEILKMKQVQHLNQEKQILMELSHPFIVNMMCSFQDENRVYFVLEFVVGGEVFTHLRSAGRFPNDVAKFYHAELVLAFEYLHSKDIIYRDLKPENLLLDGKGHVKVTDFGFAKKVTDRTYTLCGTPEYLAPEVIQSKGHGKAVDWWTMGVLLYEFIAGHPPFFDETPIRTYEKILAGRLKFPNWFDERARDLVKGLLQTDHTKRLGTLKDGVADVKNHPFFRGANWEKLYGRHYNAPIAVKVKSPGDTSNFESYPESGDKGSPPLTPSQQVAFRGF
T. brucei PKA, sequence (Q9GU80 entry or part of it): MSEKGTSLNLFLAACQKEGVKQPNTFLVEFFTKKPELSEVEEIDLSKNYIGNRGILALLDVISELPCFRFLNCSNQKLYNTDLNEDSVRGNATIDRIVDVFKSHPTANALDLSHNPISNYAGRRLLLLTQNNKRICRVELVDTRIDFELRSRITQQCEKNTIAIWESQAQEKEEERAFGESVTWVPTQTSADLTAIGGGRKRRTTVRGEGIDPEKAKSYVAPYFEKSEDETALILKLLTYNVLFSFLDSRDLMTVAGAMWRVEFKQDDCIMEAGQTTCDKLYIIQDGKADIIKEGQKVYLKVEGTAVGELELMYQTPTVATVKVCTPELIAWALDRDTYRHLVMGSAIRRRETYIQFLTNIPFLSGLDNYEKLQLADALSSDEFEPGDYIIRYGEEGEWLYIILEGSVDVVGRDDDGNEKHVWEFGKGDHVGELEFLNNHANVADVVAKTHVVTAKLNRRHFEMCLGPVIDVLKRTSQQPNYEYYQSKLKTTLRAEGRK

Compound	% VASP phosphorylation (T. brucei PKA; 10 µM)	% VASP phosphorylation (T. brucei PKA; 50 µM)	% VASP phosphorylation (T. brucei PKA; 100 µM)	% VASP phosphorylation (T. brucei PKA; 250 µM)	effect on in vivo PKA activity (VASP phosphorylation), in words (T. brucei PKA)	also measured
Nc1nc2c(nc(Sc3ccc(Cl)cc3)n2[C@@H]2O[C@@H]3COP(=O)(O)O[C@H]3[C@H]2O)c(=O)[nH]1 [8-pCPT-cGMP, 8-(4-Chlorophenylthio)guanosine-3',5'-cyclic monophosphate]	25.8142% and 29.2369% and 19.6808%	27.9869% and 31.8421% and 17.4767%	30.4284% and 21.992% and 28.117%	30.7048% and 20.4067% and 21.3305%		% VASP phosphorylation (T. brucei PKA; 1000 µM): 32.0969% and 20.8683% and 24.288%
COC1C2OP(=O)(O)OCC2OC1n1c(Sc2ccc(Cl)cc2)nc2c(=O)[nH]c(N)nc21 (stereo not drawn) [8-pCPT-2'O-me-cGMP]	38.4582% and 35.5972% and 37.6064%	40.3308% and 52.7132% and 36.328%	39.4763% and 48.2408% and 35.1104%	43.9368% and 67.0264% and 36.1457%		% VASP phosphorylation (T. brucei PKA; 20 µM): 40.2883% and 38.6651% and 38.3333%
CC(=O)OCOP1(=O)OC[C@H]2O[C@@H](n3cnc4c(=O)[nH]c(N)nc43)[C@H](O)[C@@H]2O1 (stereo partly drawn) [cGMP-AM, Guanosine-3',5'-cyclic monophosphate, acetoxymethyl ester]	34.8925% and 34.7802% and 32.2694%	40.2424% and 33.9184% and 40.637%	34.6686% and 36.9156% and 43.827%			% VASP phosphorylation (T. brucei PKA; 20 µM): 44.672% and 38.9969% and 29.3979%; % VASP phosphorylation (T. brucei PKA; 200 µM): 34.2202% and 37.453% and 36.5899%
OCCN(CCO)c1nc(N2CCCCC2)c2nc(N(CCO)CCO)nc(N3CCCCC3)c2n1 [Dipy]						EC50 ([1]; individual replicate results; pkar KO cells; read-out: EC50, Alamar blue cell viability assay, KO): 12.4 µM and 21.9 µM and 24.9 µM and 25.2 µM and 9.93 µM and 13.6 µM and 21.1 µM and 14.9 µM and 8.89 µM and 13.3 µM and 13.1 µM; EC50 (T. brucei BSF cells (WT)): 12.1 µM and 6.38 µM and 10.7 µM and 10.6 µM and 10.9 µM and 16.8 µM and 6.54 µM and 7.48 µM and 7.07 µM and 13.4 µM and 7.42 µM
Nc1nc(Cl)nc2c1ncn2[C@@H]1O[C@H](CO)[C@@H](O)[C@H]1O [2-Cl-Ado, 2-Chloroadenosine]					no effect	
Nc1ncnc2c1nc(Br)n2[C@@H]1O[C@H](CO)[C@@H](O)[C@H]1O [8-Br-Ado, 8-Bromoadenosine]					no effect	
CO[C@@H]1[C@@H]2OP(=O)(O)OC[C@H]2O[C@H]1n1c(Sc2ccc(Cl)cc2)nc2c(N)ncnc21 [8-pCPT-2′-O-Me-cAMP, 8-(4-Chlorophenylthio)-2'-O-methyladenosine-3',5'-cyclic monophosphate]					No PKA activation	
Nc1ncnc2c1cc(Br)n2[C@@H]1O[C@H](CO)[C@@H](O)[C@H]1O [6-Br-Tu, 8-Bromo-7-deazaadenosine]					no effect	
O=c1[nH]c(=O)c2ncn(C3OC4COP(=O)(O)OC4C3O)c2[nH]1 (stereo not drawn) [cXMP, xanthosine-3’,5’-cyclic monophosphate]						effect on basal kinase activity of immunoprecipitated holoenzyme, in words ([2]; 1 mM): did not show any significant effects; in vitro kinase assay [CPM], PKI ([2]; 1 mM + 5 µM PKI(5-24), Supp Fig 3c): 870.13 CPM; in vitro kinase assay [CPM], average ([2]; 1 mM, Supp Fig 3c, average of 3): 6246.71 CPM; in vitro kinase assay [CPM] ([2]; 1 mM, Supp Fig 3c, independent replicates): 4909.43 CPM and 6708.76 CPM and 7121.93 CPM
Nc1ncnc2c1nc(Sc1ccc(Cl)cc1)n2[C@@H]1O[C@@H]2COP(=O)([O-])O[C@H]2[C@H]1O.[Na+] [8-pCPT-cAMP, 8-(4-Chlorophenylthio)adenosine-3',5'-cyclic monophosphate]	24.5763% and 23.1009% and 28.0286%	16.5457% and 18.6378% and 24.8744%	10.9425% and 13.8058% and 25.7149%	9.807% and 10.2688% and 23.6208%	No PKA activation	% VASP phosphorylation (T. brucei PKA; 1000 µM): 10.7438% and 15.1961% and 19.6401%
Nc1ncnc2c1c(Br)cn2[C@@H]1O[C@H](CO)[C@@H](O)[C@H]1O [5BrTu]						EC50 ([1]; read-out: EC50, Alamar blue cell viability assay, KO; individual replicate results; pkar KO cells): 0.68 µM and 1.19 µM and 1.27 µM and 1.09 µM and 0.619 µM and 0.797 µM and 1.17 µM; EC50 (T. brucei BSF cells (WT)): 0.615 µM and 1.55 µM and 1.12 µM and 0.583 µM and 1.08 µM and 0.749 µM and 0.605 µM and 0.692 µM
Nc1nc2c(nc(Sc3ccc(Cl)cc3)n2[C@@H]2O[C@H](CO)[C@@H](O)[C@H]2O)c(=O)[nH]1 [8-pCPT-Guo, 8-(4-Chlorophenylthio)guanosine]					no effect	
CO[C@@H]1[C@H](O)[C@@H](CO)O[C@H]1n1c(Sc2ccc(Cl)cc2)nc2c(N)ncnc21 [8-pCPT-2'O-me-Ado]	17.7877% and 18.0048% and 22.1674%	17.4825% and 18.9639% and 23.6777%	18.5972% and 20.7972% and 25.3942%	20.7922% and 23.6499% and 24.007%		% VASP phosphorylation (T. brucei PKA; 20 µM): 16.9524% and 18.6949% and 22.9783%
